Read-outs that look alike come from different tables or passages of the source.
Key:
K pneumoniae J 102 = experiment: MIC determination (agar dilution, CLSI); format: cell-based; conditions: K pneumoniae J 102 (TEM1, SHV5, OMP); standalone
Method: (§1) In a typical procedure for determining MIC values, overnight grown bacterial cultures were diluted appropriately and inoculated on the agar media containing doubling concentrations of the test compounds. Observation for growth or no growth was performed after 16-20 hours of incubation at 35±2° C. in ambient air. The overall procedure was performed as per Clinical and Laboratory Standards Institute (CLSI) recommendations (Clinical and Laboratory Standards Institute (CLSI), Performance Standards for Antimicrobial Susceptibility Testing, 20th Informational Supplement, M 100-S20, Volume 30, No. 1, 2010).

K pneumoniae J 101 = experiment: MIC determination (agar dilution, CLSI); format: cell-based; conditions: K pneumoniae J 101 (TEM1, SHV12, OMP); standalone
Method: as §1

K pneumoniae J 104 = experiment: MIC determination (agar dilution, CLSI); format: cell-based; conditions: K pneumoniae J 104 (TEM1, SHV11, CTX-M, OMP); standalone
Method: as §1

K pneumoniae J 105 = experiment: MIC determination (agar dilution, CLSI); format: cell-based; conditions: K pneumoniae J 105 (TEM1, SHV2, CTX-M, OMP); standalone
Method: as §1

[1] = test system: K. pneumonia S48 expressing multiple ESBLs including MBL (NDM4) and Class A (CTX-M, SHV, TEM); format: cell-based, K. pneumoniae; conditions: Cefepime 8 μg/ml, Compound of Formula (III) 2 μg/ml, Clavulanic acid 2 μg/ml, Mecillinam 2 μg/ml, Imipenem 8 μg/ml
Method: Log phase cultures were diluted to desired inoculums in flasks with MHB, containing various drug concentrations. Flasks were incubated at 35° C. in orbital shaker with rotational speed of 125 rpm. […] Plates were incubated for 24 hours at 35° C. and colonies were enumerated to determine the colony forming units (CFU) per ml volume.

[2] = test system: MDR P. mirabilis G 186 producing NDM & TEM β-lactamases; experiment: Time kill study at MFC and MSC; format: cell-based; conditions: for Bacterial count: Cefepime 8 mcg/ml (MFC), Compound of Formula (III) 0.25 mcg/ml (MSC), Imepenem 8 mcg/ml
Method: (§2) The synergistic killing effect of the combinations according to invention was studied by performing time kill studies. In a typical time kill study, the freshly grown cultures were diluted to the required cell density (initial starting inoculum) in Cation adjusted Muller Hinton broth medium (BD, USA). The antibacterial agents (either alone or in combination) at the required concentrations were added into the culture-containing medium. The samples were incubated under shaking condition (120 rpm) at 37° C. Enumeration of viable bacterial count was done every 2 hour by diluting in normal saline and plating on to the Tryptic Soya Agar plates (BD, USA). The plates were incubated for 24 hours to arrive at the viable bacterial count. The results are expressed in terms of Log CFU per ml. In general, the decrease of 1 Log CFU/ml, corresponds to 90% killing of bacteria. Similarly, 2 Log CFU/ml reductions indicates to 99% killing of bacteria and 3 Log CFU/ml reductions is equal to 99.9% killing of bacteria.

[3] = test system: MDR Klebsiella pneumoniae B 88 producing NDM, SHV & TEM beta-lactamases; experiment: Time kill study at MFC and MSC; format: cell-based; conditions: for Bacterial count: Cefepime 8 mcg/ml (MFC), Compound of Formula (III) 0.12 mcg/ml (MSC), Imepenem 8 mcg/ml
Method: as §2

Pseudomonas PBP 1A = target: T1, Pseudomonas PBP 1A (Pseudomonas aeruginosa, UniProt Q07806); experiment: PBP binding assay (Bocillin FL competition); conditions: Pseudomonas PBP 1A; read-out: IC50 (converted)
T1 construct: endogenous in cells
T1 sequence (Q07806 whole entry): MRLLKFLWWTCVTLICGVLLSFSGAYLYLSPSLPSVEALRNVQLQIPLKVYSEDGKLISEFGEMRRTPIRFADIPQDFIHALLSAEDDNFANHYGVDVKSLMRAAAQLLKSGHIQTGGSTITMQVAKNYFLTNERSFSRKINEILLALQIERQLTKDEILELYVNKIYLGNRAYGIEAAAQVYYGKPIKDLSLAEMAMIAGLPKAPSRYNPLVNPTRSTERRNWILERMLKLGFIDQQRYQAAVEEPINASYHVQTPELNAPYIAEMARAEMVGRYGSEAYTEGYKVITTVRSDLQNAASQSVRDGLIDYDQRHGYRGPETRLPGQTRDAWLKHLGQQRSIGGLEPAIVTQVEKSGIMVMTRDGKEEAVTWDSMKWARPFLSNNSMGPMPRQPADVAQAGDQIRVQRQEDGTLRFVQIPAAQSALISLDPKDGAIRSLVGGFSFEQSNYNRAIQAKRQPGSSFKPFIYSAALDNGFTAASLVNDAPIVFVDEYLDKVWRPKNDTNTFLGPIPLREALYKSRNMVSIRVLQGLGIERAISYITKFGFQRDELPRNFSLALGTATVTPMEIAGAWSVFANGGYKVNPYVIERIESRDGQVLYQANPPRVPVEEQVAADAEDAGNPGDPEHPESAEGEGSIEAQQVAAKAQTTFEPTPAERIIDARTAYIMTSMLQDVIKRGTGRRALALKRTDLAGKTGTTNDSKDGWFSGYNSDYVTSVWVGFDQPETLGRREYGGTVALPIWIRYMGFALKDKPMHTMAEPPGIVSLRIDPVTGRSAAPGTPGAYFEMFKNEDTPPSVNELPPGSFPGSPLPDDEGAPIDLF
Method: (§3) The phrase “selective and high affinity PBP binder” refers to a PBP binder which binds to only one PBP with very high affinity. In general, the term “selective and high affinity PBP binder” also includes those binders where a substantial fraction of binder selectively binds to only one PBP with high affinity. […]. The term “IC50 value” of a compound refers to the concentration of the compound that reduces the binding of Bocillin-FL to PBPs by 50% as compared to when no compound was added to the reaction.
(§4) A compound of Formula (III) was prepared using the procedure disclosed in PCT International Application No. PCT/IB2012/054290 and was evaluated for its PBP binding affinity profile. […] The reaction mixtures were then denatured with 20 μl each of SDS-denaturing solution at 100° C. for 3 min PBPs were separated through 10% SDS polyacrylamide gel electrophoresis (Bio-Rad Laboratories, Hercules, Calif.). The protein gels were rinsed in water immediately after electrophoresis. […] […].

Pseudomonas PBP 5/6 = Pseudomonas PBP 5/6 (Pseudomonas aeruginosa, UniProt G3XD74); experiment: PBP binding assay (Bocillin FL competition); conditions: read-out: IC50
Pseudomonas PBP 5/6, sequence (G3XD74 entry or part of it): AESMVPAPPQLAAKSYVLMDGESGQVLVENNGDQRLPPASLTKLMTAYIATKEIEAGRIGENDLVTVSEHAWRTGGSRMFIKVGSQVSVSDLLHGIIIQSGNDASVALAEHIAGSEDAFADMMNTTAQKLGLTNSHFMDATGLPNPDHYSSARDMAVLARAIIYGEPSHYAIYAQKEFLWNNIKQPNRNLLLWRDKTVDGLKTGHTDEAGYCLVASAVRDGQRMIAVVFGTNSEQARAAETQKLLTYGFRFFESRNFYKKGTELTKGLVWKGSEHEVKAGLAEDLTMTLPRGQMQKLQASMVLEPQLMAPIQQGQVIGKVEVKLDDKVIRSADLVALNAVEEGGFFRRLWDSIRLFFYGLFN
Method: as §3, §4

E. coli ATCC 25922 = experiment: Microbiological drug diffusion assay, standalone compounds in absence of beta-lactamase enzymes; format: cell-based; conditions: Escherichia coli, ATCC25922, 40 μg/ml, no beta-lactamase, read-out: Inhibition zone diameter
Method: Next, the beta-lactamase stability of some of these compounds was evaluated. In a typical stability study, ESBL enzymes from K. pneumoniae S48 producing Metalo betalactamase (NDM4) and Class A (CTX-M, SHV, TEM) beta-lactamase were isolated from freshly grown culture by 5 repetitive cycles of freeze and thaw in liquid nitrogen. […] After the stipulated incubation duration, the test compounds were extracted from the reaction mixture by the addition of 0.5 ml of Acetonitrile in 1:1 ratio (final concentration of test compound—40 μg/ml) and centrifuged at 12000 rpm for 2 min to separate precipitated protein. The activity of test compounds was measured from the supernatant by performing microbiological drug diffusion assay. For drug diffusion assay, Muller-Hinton Agar (MHA) seeded with E. coli ATCC 25922 was poured on to a bioassay plate placed on a flat surface and allowed to solidify. Appropriate concentration of the standalone and enzyme treated test compound dilutions were added to 6 mm wells cut with the help of a borer. The antibacterial activity of the test compounds was measured in terms of zones of inhibition appearing after 18-24 hours of incubation at 37° C. Measurement of diameter of zone of inhibition was undertaken to the nearest whole value with the help of ruler.

P. mirabilis G 186 = experiment: Minimum filamentation / spheroplasting concentration; conditions: P. mirabilis G 186 (NDM, TEM); minimum spheroplasting concentration
From the text: The term “MSC” as used herein refers to minimum spheroplasting concentration, which is the minimum concentration of an antibacterial agent at which about 80% of bacterial cells covert into spheroplasts.
The term “MFC” as used herein refers to minimum filamentation concentration, which is the minimum concentration of an antibacterial agent at which about 80% of bacterial cells get elongated to form filament like structures.

O=C(NNC(=O)[C@@H]1CC[C@@H]2CN1C(=O)N2OS(=O)(=O)O)[C@@H]1CCCNC1 [Compound of Formula (III), trans-(2S,5R)-sulfuric acid mono-[2-(N′—[(R)-piperidin-3-carbonyl]-hydrazino Carbonyl)-7-oxo-1,6-diaza-bicyclo[3.2.1]oct-6-yl] Ester]
MIC (K pneumoniae J 102): > 32 µg/mL | MIC (K pneumoniae J 101): > 32 µg/mL | MIC (K pneumoniae J 104): > 32 µg/mL | MIC (K pneumoniae J 105): > 32 µg/mL | Bacterial count ([1]; 0 hour): 5.5 log (CFU/ml) | Bacterial count ([1]; 2 hours): 5.4 log (CFU/ml) | Bacterial count ([1]; 4 hours): 3.5 log (CFU/ml) | Bacterial count ([1]; 6 hours): 3.6 log (CFU/ml) | Bacterial count ([2]; 0 hour): 6.58 Log10 CFU/ml | Bacterial count ([2]; 2 hours): 7.2 Log10 CFU/ml | Bacterial count ([2]; 4 hours): 7.7 Log10 CFU/ml | Bacterial count ([2]; 6 hours): 8.43 Log10 CFU/ml | Bacterial count ([2]; 8 hours): 8.6 Log10 CFU/ml | Antibacterial activity (in words) ([2]; P. mirabilis G 186, at MFC and MSC concentration, Table 14): did not exhibit antibacterial activity | Bacterial count ([3]; 0 hour): 6.14 Log10 CFU/ml | Bacterial count ([3]; 2 hours): 7.3 Log10 CFU/ml | Bacterial count ([3]; 4 hours): 7.8 Log10 CFU/ml | Bacterial count ([3]; 6 hours): 7.9 Log10 CFU/ml | Bacterial count ([3]; 8 hours): 8.5 Log10 CFU/ml | Antibacterial activity (in words) ([3]; Klebsiella pneumoniae B 88, at MFC and MSC concentration, Table 13): did not exhibit antibacterial activity | IC50 (Pseudomonas PBP 1A): > 10.2 µM | IC50 (Pseudomonas PBP 5/6): > 10.2 µM | zone of inhibition at 40 µg/mL (E. coli ATCC 25922; 0 hour): 16 mm | zone of inhibition at 40 µg/mL (E. coli ATCC 25922; 1 hour): 16 mm | zone of inhibition at 40 µg/mL (E. coli ATCC 25922; 2 hours): 16 mm | zone of inhibition at 40 µg/mL (E. coli ATCC 25922; 24 hours): 16 mm | MSC (P. mirabilis G 186): 0.25 µg/mL

Reference: US20170172994A1, “COMPOSITIONS AND METHODS FOR TREATING BACTERIAL INFECTIONS” (WOCKHARDT LIMITED, priority 2013, published 2017)
